The molecules below were run on Huh-7 HCV replicon cells (genotype 1a) (assay: Replicon ELISA cell based assay, genotype 1a). Details: Hepatitis C virus, Huh-7 genotype 1a replicon, 72 hours.
Set-up: species or system HCV genotype 1a
Procedure: 100 μL of medium containing 10% FCS were added to each well of clear, flat-bottomed 96 well microplates, excepting wells in the top row. Test compound was diluted in assay medium to twice the final required starting concentration from a 40 mM stock solution in DMSO. 200 μL of the starting dilution were introduced into two wells each in the top row and doubling dilutions made down the plate by the sequential transfer of 100 μL aliquots with thorough mixing in the wells; the final 100 μL were discarded. The two bottom rows were not used for compound dilutions. Huh-7 HCV replicon cell monolayers nearing confluency were stripped from growth flasks with versene-trypsin solution and the cells were resuspended in assay medium at either 2×10^5 cells/mL (sub-line 5-15; genotype 1b; Lohmann, V., Komer, F., Koch, J-O., Herian, U., Thielmann, L. And Bartenschlager, R., 1999, Science, 285, pp 110-113) or at 3×10^5 cells/mL (genotype 1a; Gu, B., Gates, A. T., Isken, O., Behrens, S. E. and Sarisky, R. T., J. Virol., 2003, 77, 5352-5359). 100 μL of cell suspension were added to all wells and the plates incubated at 37° C. for 72 hours in a 5% CO2 atmosphere.
Following incubation, the assay medium was aspirated from the plates. The cell sheets were washed by gentle immersion in phosphate buffered saline (PBS), which was then aspirated off, and fixed with acetone:methanol (1:1) for 5 minutes. Following a further wash with PBS, 100 μL of ELISA diluent (PBS+0.05% v/v Tween 20+2% w/v skimmed milk powder) were added to all wells and the plates incubated at 37° C. for 30 minutes on an orbital platform. The diluent was removed and each well then received 50 μL of a 1/200 dilution of anti-HCV specific, murine, monoclonal antibody (either Virostat #1872 or #1877), except for wells in one of the compound-free control rows which received diluent alone to act as negative controls. The plates were incubated at 37° C. for 2 hours and washed 3 times with PBS/0.05% Tween 20, then 50 μL of horseradish peroxidase conjugated, anti-mouse, rabbit polyclonal serum (Dako #P0260), diluted 1/1000, were added to all wells. The plates were incubated for a further hour, the antibody removed and the cell sheets washed 5 times with PBS/Tween and blotted dry. The assay was developed by the addition of 50 μL of ortho-phenylenediamine/peroxidase substrate in urea/citrate buffer (SigmaFast, Sigma #P-9187) to each well, and colour allowed to develop for up to 15 minutes. The reaction was stopped by the addition of 25 μL per well of 2 M sulphuric acid and the plates were read at 490 nm on a Fluostar Optima spectrophotometer.
The substrate solution was removed and the plates were washed in tap water, blotted dry and the cells stained with 5% carbol fuchsin in water for 30 minutes. The stain was discarded and the cell sheets washed, dried and examined microscopically to assess cytotoxicity.
The absorbance values from all compound-free wells that had received both primary and secondary antibodies were averaged to obtain a positive control value. The mean absorbance value from the compound-free wells that had not received the primary antibody was used to provide the negative (background) control value. The readings from the duplicate wells at each compound concentration were averaged and, after the subtraction of the mean background from all values, were expressed as a percentage of the positive control signal. The quantifiable and specific reduction of expressed protein detected by the ELISA in the presence of a drug can be used as a measure of replicon inhibition. GraFit software was used to plot the curve of percentage inhibition against compound concentration and derive the 50% inhibitory concentration (IC50) for the compound.

First: COc1cc(C(=O)N2[C@@H](c3nccs3)[C@@H](c3cnccn3)C[C@@]2(CC(C)C)C(=O)O)ccc1C(C)(C)C (racemic) [Compound A, rel-(2S,4S,5R)-2-Isobutyl-1-(4-tert-butyl-3-methoxybenzoyl)-4-(pyrazin-2-yl)-5-(1,3-thiazol-2-yl)pyrrolidine-2-carboxylic acid, reference compound]
Second: COc1cc(C(=O)N2[C@@H](c3nccs3)[C@@H](c3cnccn3)C[C@@]2(CCS(C)(=O)=O)C(=O)O)ccc1C(C)(C)C (racemic) [Compound F, rel-(2R,4S,5R)-1-(4-tert-Butyl-3-methoxybenzoyl)-2-(2-(methylsulphonyl)ethyl)-4-pyrazin-2-yl-5-(1,3-thiazol-2-yl)-pyrrolidine-2-carboxylic acid, reference compound]
The IC50 of the first is lower: 10 to 100 µM for the first, > 100 µM for the second. The first is the more potent here.

`COc1cc(C(=O)N2[C@@H](c3nccs3)[C@@H](c3cnccn3)C[C@@]2(Cc2ccccn2)C(=O)O)ccc1C(C)(C)C` (racemic) [Compound C, rel-(2R,4S,5R)-1-(4-tert-Butyl-3-methoxybenzoyl)-2-(pyridin-2-ylmethyl)-4-(pyrazin-2-yl)-5-(1,3-thiazol-2-yl)pyrrolidine-2-carboxylic acid, reference compound] and `COc1cc(C(=O)N2[C@@H](c3nccs3)[C@@H](c3cnccn3)C[C@@]2(Cc2ccccc2)C(=O)O)ccc1C(C)(C)C` (racemic) [Compound G, rel-(2R,4S,5R)-1-(4-tert-Butyl-3-methoxybenzoyl)-2-(phenylmethyl)-4-(pyrazin-2-yl)-5-(1,3-thiazol-2-yl)pyrrolidine-2-carboxylic acid, reference compound] fall in the same range of IC50: 10 to 100 µM for the first, 10 to 100 µM for the second.

Compared with `COc1cc(C(=O)N2[C@@H](c3nccs3)[C@@H](c3cnccn3)C[C@@]2(Cc2c[nH]cn2)C(=O)O)ccc1C(C)(C)C` (racemic) [Compound D, rel-(2R,4S,5R)-1-(4-tert-Butyl-3-methoxybenzoyl)-2-(1H-imidazol-4-yl-methyl)-4-(pyrazin-2-yl)-5-(1,3-thiazol-2-yl)-pyrrolidine-2-carboxylic acid, reference compound], `COc1cc(C(=O)N2[C@@H](c3nccs3)[C@@H](c3cnccn3)C[C@@]2(Cc2cscn2)C(=O)O)ccc1C(C)(C)C` (racemic) [Example 1, rel-(2R,4S,5R)-1-(3-Methoxy-4-tert-butylbenzoyl)-4-(pyrazin-2-yl)-2-(1,3-thiazol-4-ylmethyl)-5-(1,3-thiazol-2-yl)pyrrolidine-2-carboxylic acid] is lower in IC50: > 100 µM for the first, < 10 µM for the second.

`COc1cc(C(=O)N2[C@@H](c3cncs3)[C@@H](c3cnccn3)C[C@@]2(CCSC)C(=O)O)ccc1C(C)(C)C` (racemic) [Compound E, rel-(2R,4S,5R)-1-(4-tert-Butyl-3-methoxybenzoyl)-2-(2-(methylthio)ethyl)-4-(pyrazin-2-yl)-5-(1,3-thiazol-5-yl)-pyrrolidine-2-carboxylic acid, reference compound] and `COc1cc(C(=O)N2[C@@H](c3nccs3)[C@@H](c3cnccn3)C[C@@]2(CC(C)C)C(=O)O)ccc1C(C)(C)C` (single isomer, unassigned; enantiomer a) [Compound B, reference compound] fall in the same range of IC50: 10 to 100 µM for the first, 10 to 100 µM for the second.

`COc1cc(C(=O)N2[C@@H](c3nccs3)[C@@H](c3cnccn3)C[C@@]2(Cc2nccs2)C(=O)O)ccc1C(C)(C)C` (racemic) [Example 3, rel-(2R,4S,5R)-1-(3-Methoxy-4-tert-butylbenzoyl)-4-(pyrazin-2-yl)-2-(1,3-thiazol-2-ylmethyl)-5-(1,3-thiazol-2-yl)pyrrolidine-2-carboxylic acid] and `COc1cc(C(=O)N2[C@@H](c3ncc(C)s3)[C@@H](c3cnccn3)C[C@@]2(Cc2nccs2)C(=O)O)ccc1C(C)(C)C` (racemic) [Example 13, rel-(2R,4S,5R)-1-(3-Methoxy-4-tert-butylbenzoyl)-5-(5-methyl-1,3-thiazol-2-yl)-4-(pyrazin-2-yl)-2-(1,3-thiazol-2-ylmethyl)pyrrolidine-2-carboxylic acid] cannot be ordered by IC50: < 10 µM for the first, < 10 µM for the second.

`COc1cc(C(=O)N2[C@@H](c3ncc(C)s3)[C@@H](c3cnccn3)C[C@@]2(Cc2ccsn2)C(=O)O)ccc1C(C)(C)C` (racemic) [Example 5, rel-(2R,4S,5R)-1-(3-Methoxy-4-tert-butylbenzoyl)-5-(5-methyl-1,3-thiazol-2-yl)-4-(pyrazin-2-yl)-2-(1,2-thiazol-3-ylmethyl)pyrrolidine-2-carboxylic acid] and `COc1cc(C(=O)N2[C@@H](c3ncc(C)s3)[C@@H](c3cnccn3)C[C@@]2(Cc2cscn2)C(=O)O)ccc1C(C)(C)C` (racemic) [Example 15, rel-(2R,4S,5R)-1-(3-Methoxy-4-tert-butylbenzoyl)-5-(5-methyl-1,3-thiazol-2-yl)-4-(pyrazin-2-yl)-2-(1,3-thiazol-4-ylmethyl)pyrrolidine-2-carboxylic acid] cannot be ordered by IC50: < 10 µM for the first, < 10 µM for the second.

`COc1cc(C(=O)N2[C@@H](c3nccs3)[C@@H](c3cnccn3)C[C@@]2(Cc2ccsn2)C(=O)O)ccc1C(C)(C)C` (racemic) [Example 7, rel-(2R,4S,5R)-1-(3-Methoxy-4-tert-butylbenzoyl)-4-(pyrazin-2-yl)-2-(1,2-thiazol-3-ylmethyl)-5-(1,3-thiazol-2-yl)pyrrolidine-2-carboxylic acid] and `COc1cc(C(=O)N2[C@@H](c3nccs3)[C@@H](c3cnccn3)C[C@@]2(Cc2cscn2)C(=O)O)ccc1C(C)(C)C` (single isomer, unassigned; enantiomer a) [Example 2] cannot be ordered by IC50: < 10 µM for the first, < 10 µM for the second.

`COc1cc(C(=O)N2[C@@H](c3ncc(C)s3)[C@@H](c3cnccn3)C[C@@]2(Cn2cccn2)C(=O)O)ccc1C(C)(C)C` (racemic) [Example 9, rel-(2R,4S,5R)-1-(3-Methoxy-4-tert-butylbenzoyl)-5-(5-methyl-1,3-thiazol-2-yl)-4-(pyrazin-2-yl)-2-(1H-pyrazol-1-ylmethyl)pyrrolidine-2-carboxylic acid] and `COc1cc(C(=O)N2[C@@H](c3nccs3)[C@@H](c3cnccn3)C[C@@]2(Cn2cccn2)C(=O)O)ccc1C(C)(C)C` (racemic) [Example 11, rel-(2R,4S,5R)-1-(3-Methoxy-4-tert-butylbenzoyl)-4-(pyrazin-2-yl)-2-(1H-pyrazol-1-ylmethyl)-5-(1,3-thiazol-2-yl)pyrrolidine-2-carboxylic acid] cannot be ordered by IC50: < 10 µM for the first, < 10 µM for the second.

`COc1cc(C(=O)N2[C@@H](c3nccs3)[C@@H](c3cnccn3)C[C@@]2(Cc2nccs2)C(=O)O)ccc1C(C)(C)C` (single isomer, unassigned; enantiomer a) [Example 4] and `COc1cc(C(=O)N2[C@@H](c3ncc(C)s3)[C@@H](c3cnccn3)C[C@@]2(Cc2nccs2)C(=O)O)ccc1C(C)(C)C` (single isomer, unassigned; enantiomer a) [Example 14] cannot be ordered by IC50: < 10 µM for the first, < 10 µM for the second.

`COc1cc(C(=O)N2[C@@H](c3ncc(C)s3)[C@@H](c3cnccn3)C[C@@]2(Cc2ccsn2)C(=O)O)ccc1C(C)(C)C` (single isomer, unassigned; enantiomer a) [Example 6] and `COc1cc(C(=O)N2[C@@H](c3ncc(C)s3)[C@@H](c3cnccn3)C[C@@]2(Cc2cscn2)C(=O)O)ccc1C(C)(C)C` (single isomer, unassigned; enantiomer a) [Example 16] cannot be ordered by IC50: < 10 µM for the first, < 10 µM for the second.

`COc1cc(C(=O)N2[C@@H](c3nccs3)[C@@H](c3cnccn3)C[C@@]2(Cc2ccsn2)C(=O)O)ccc1C(C)(C)C` (single isomer, unassigned; enantiomer a) [Example 8] and `COc1cc(C(=O)N2[C@@H](c3nccs3)[C@@H](c3cnccn3)C[C@@]2(Cn2cccn2)C(=O)O)ccc1C(C)(C)C` (single isomer, unassigned; enantiomer a) [Example 12] cannot be ordered by IC50: < 10 µM for the first, < 10 µM for the second.

In the case of `COc1cc(C(=O)N2[C@@H](c3ncc(C)s3)[C@@H](c3cnccn3)C[C@@]2(Cn2cccn2)C(=O)O)ccc1C(C)(C)C` (single isomer, unassigned; enantiomer a) [Example 10], the IC50 is reported as < 10 µM.

From patent publication US20090227600A1, “4-(PYRAZINE-2-YL) -PYRROLIDINE -2-CARBOXYLIC ACID COMPOUNDS AND DERIVATIVES THEREOF AS HEPATITIS C VIRUS INHIBITORS” (priority 2004, published 2009)
